Source: patent publication US4894382A, “Substituted 1,3-diazolyl-2-propanols and their use as antimycotic agents” (Bayer Aktiengesellschaft, priority 1983, dated 1990)
Values after ≈ are worked out from the molar mass of the structure shown.

How the values were obtained:
Candida = test: Antimycotic in vivo action (oral) in candidosis of mice; parameters: species or system mice of the SPF-CF1 type; conditions: 10-50 mg/kg one hour before and seven hours after i.v. infection
Experimental: Antimycotic in vivo action (oral) in candidosis of mice
Mice of the SPF-CF1 type were infected intravenously with 1-2×10^6 logarithmically growing Candida cells, suspended in physiological saline solution. The animals were treated orally one hour before and seven hours after the infection, with in each case 10-50 mg/kg of body weight of the products.
Untreated animals died 3 to 6 days after infection. The survival rate on the 6th day after infection was about 5% in the case of untreated animals.

Aspergillus fumigatus = test: Antimycotic in vitro activity (series dilution test), Aspergillus fumigatus; type: cell-based; conditions: Sabourand's milieu d'epreuve, 5×10^4 germs/ml, 20° C., 96 hours, read-out: MIC values in Y/ml of nutrient medium for Aspergillus fumigatus
Experimental: (§1) Antimycotic in vitro activity
(§2) The in vitro tests were carried out in a series dilution test using germ inocula of on average 5×10^4 germs/ml of substrate. The nutrient medium used was (a) for dermatophytes and moulds: Sabourand's milieu d'epreuve, and (b) for yeasts: meat extract/glucose broth.
(§3) The incubation temperature was 20° C. and the incubation time was 24 to 96 hours for yeasts and 96 hours for dermatophytes and moulds.

Candida albicans = test: Antimycotic in vitro activity (series dilution test), Candida albicans; type: cell-based; conditions: meat extract/glucose broth, 5×10^4 germs/ml, 20° C., 24 to 96 hours, read-out: MIC values in Y/ml of nutrient medium for Candida albicans
Experimental: as §1, §2, §3

[1] = tested on: dermatophytes, moulds and yeasts; test: Antimycotic in vitro activity (series dilution test), overall; type: cell-based
Experimental: as §1, §2, §3

Torulopsis glabrata = test: Antimycotic in vitro activity (series dilution test), Torulopsis glabrata; type: cell-based; conditions: Nakaseomyces glabratus; meat extract/glucose broth; 5×10^4 germs/ml; 20° C.; 24 to 96 hours; read-out: MIC values in Y/ml of nutrient medium for Torulopsis glabrata
Experimental: as §1, §2, §3

Microsporum canis = test: Antimycotic in vitro activity (series dilution test), Microsporum canis; type: cell-based; conditions: Sabourand's milieu d'epreuve, 5×10^4 germs/ml, 20° C., 96 hours, read-out: MIC values in Y/ml of nutrient medium for Microsporum canis
Experimental: as §1, §2, §3

Trichophyton mentagr. = test: Antimycotic in vitro activity (series dilution test), Trichophyton mentagr.; type: cell-based, Trichophyton mentagrophytes; conditions: Sabourand's milieu d'epreuve, 5×10^4 germs/ml, 20° C., 96 hours, read-out: MIC values in Y/ml of nutrient medium for Trichophyton mentagr.
Experimental: as §1, §2, §3

| SMILES | Action (survivors on the 6th day after infection) (Candida) | action in candidosis of mice (in words) (Candida) | MIC (Aspergillus fumigatus) [µg/mL] | MIC (Candida albicans) [µg/mL] | antimycotic action in vitro (in words) [1] | MIC (Torulopsis glabrata) [µg/mL] | MIC (Microsporum canis) [µg/mL] | MIC (Trichophyton mentagr.) [µg/mL] |
| --- | --- | --- | --- | --- | --- | --- | --- | --- |
| CC(C)(Cc1ccc(Cl)cc1)C(O)(Cn1ccnc1)Cn1cncn1 (centres unmarked) [Example 8] | ++++ (good action=80% survivors on the 6th day after infection) | good to very good action | – | – | – | – | – | – |
| CC(C)(Cc1ccc(Cl)cc1)C(O)(Cn1cncn1)Cn1cncn1 [Example 2] | +++++ (very good action=90% survivors on the 6th day after infection) | good to very good action | 4 (≈ 11.1 µM) | 4 (≈ 11.1 µM) | good antimycotic action | 16 (≈ 44.3 µM) | 4 (≈ 11.1 µM) | 1 (≈ 2.77 µM) |
| CC(C)(CSc1ccc(Cl)cc1)C(O)(Cn1cncn1)Cn1cncn1 [Example 5] | ++++ (good action=80% survivors on the 6th day after infection) | good to very good action | 32 (≈ 81.4 µM) | 32 (≈ 81.4 µM) | good antimycotic action | 64 (≈ 163 µM) | 32 (≈ 81.4 µM) | 1 (≈ 2.55 µM) |
| CC(C)(Oc1ccc(Cl)cc1)C(O)(Cn1cncn1)Cn1cncn1 [Example 6] | ++++ (good action=80% survivors on the 6th day after infection) | good to very good action | 64 (≈ 176 µM) | 4 (≈ 11 µM) | good antimycotic action | 16 (≈ 44.1 µM) | – | 32 (≈ 88.2 µM) |
| CC(C)(Cc1ccc(Cl)cc1Cl)C(O)(Cn1cncn1)Cn1cncn1 [Example 1, 4-(2,4-dichlorophenyl)-3,3-dimethyl-2-(1,2,4-triazol-1-yl-methyl)-1-(1,2,4-triazol-1-yl)-2-butanol] | +++++ (very good action=90% survivors on the 6th day after infection) | good to very good action | 32 (≈ 81 µM) | 32 (≈ 81 µM) | good antimycotic action | 64 (≈ 162 µM) | 32 (≈ 81 µM) | 1 (≈ 2.53 µM) |
| Cc1ccc(CC(C)(C)C(O)(Cn2cncn2)Cn2cncn2)cc1 [Example 3] | ++++ (good action=80% survivors on the 6th day after infection) | good to very good action | 4 (≈ 11.7 µM) | 16 (≈ 47 µM) | good antimycotic action | 64 (≈ 188 µM) | 8 (≈ 23.5 µM) | 1 (≈ 2.94 µM) |
